Holding throughout (format): in vivo
Experiment [1] has as its system tomato root gall nematode (Meloidogyne incognita). Description: Tomato root gall nematode test (II. stage infective larvae, treated NGM agar plate). To be noted: 72 hours; for mortality at 200 µg/mL / mortality at 400 µg/mL: Meloidogyne incognita. The protocol:
(6) Root gall nematode The test is carried out on II. stage infective larvae, which are collected from the root of tomato plant, placed on a filter and incubated in sterile water at 25° C. The hatched larvae are collected every 24 hours and immediately placed onto the treated nutrient medium. As nutrient medium NGM agar plate free from bacterial is used. 0.5 ml of the acetoneous solution of the test compound is applied onto the surface of the plate in a Petri-dish. After the acetone has evaporated 5 μl of the larva suspension is applied onto each plate. After 72 hours the surviving and killed insects are counted.

In experiment [2] the test system is domestic fly (Musca domestica). Description: Domestic fly test (larvae in treated nutrient medium). To be noted: 0.1% related to milk, 0.05% related to total nutrient medium. The protocol: The fly larvae are grown on a nutrient medium of the following composition: 2 ml of milk; 2 ml of water; 2 g of wheat bran; 0.1 ml of saturated alcoholic nipagin solution.
The nutrient medium is filled into cylindrical glass vials (30×100 mm) and 25 fly larvae are raised in each vial. The test compound is dissolved in milk; the end concentration (related to milk) amounts to 0.1% which corresponds to 0.05% (related to the total nutrient medium). The solution of the active ingredient is admixed with the nutrient medium whereupon […] of domestic fly larvae of the I. stage are placed into each vial and the vials are closed with a hard cotton-wool stopper. The nymphs emerging from the larvae are collected in each vial, counted and kept in a Petri dish (diameter 25 mm) until flies hatch from the nymphs. The hatched flies are counted.

The test system of experiment [3] is Caenorhabditis elegans. Briefly: Caenorhabditis elegans test (treated NGM agar plate, young adults). The protocol:
(5) Caenorhabditis elegans 0.5 ml of the acetonous solution of the test compound is applied onto a NGM agar plate free from bacteria in a Petri dish. After the acetone has dried 25-30 young adults are placed on the plate. After 24 hours the surviving and killed insects are counted.

Experiment [4] concerns cabbage butterfly (Pieris brassicae). Description: Cabbage butterfly test (sprayed cabbage seedlings). As to conditions: 50 EC; for pest or weed control at 0.1 % / pest or weed control at 0.01 %: Pieris brassicae, read-out: Killing rate of larvae. The protocol: From the 50 EC of the test compound a diluted series is prepared with water and the host seedlings (cabbage) are sprayed with this composition until the spray runs down. The spray is allowed to dry whereupon 20 young larvae of the II. stage are placed on each treated plant and the seedlings are kept under so-called "long-day" illumination (18 hours of illumination and 6 hours of darkness). The nibbled plants are replaced by similarly sprayed plants if necessary. The killing rate of the insects, the growth rate of the larvae and the morphological deformations of the surviving nymphs and adults are registered.
In the 50 EC compositions the concentration of compounds 23 and 25 amounts to 0.01% and that of the other compounds to 0.1%.

[5] abbreviates: 200 μg/ml, first test, read-out: mortality 1.
Where [6] appears, read: 200 μg/ml, second test, read-out: mortality 2.
The mark [7] stands for this setting: 200 μg/ml, read-out: mortality Average.
Where [8] appears, read: 400 μg/ml, first test, read-out: mortality 1.
Where [9] appears, read: 400 μg/ml, second test, read-out: mortality 2.
[10] abbreviates: 400 μg/ml, read-out: mortality Average.
[11] abbreviates: Caenorhabditis elegans, 24 h, read-out: Lethality.

Like-named read-outs stand apart in the source and are kept apart here.

For the compound `CCOc1cc2c(cc1OCC)OC(C)(C)C=C2` [Compound 2], the Nematocidal effect result in experiment [1] (200 μg/ml) and in experiment [1] (400 μg/ml) was “strong” each time. For the same compound, the mortality at 200 µg/mL in experiment [1] (setting [5]) was determined as 74%; in experiment [1] (setting [6]) it was 69%; in experiment [1] (setting [7]) it was 72%. Besides, the mortality at 400 µg/mL in experiment [1] (setting [8]) came out at 83%; in experiment [1] (setting [9]) it was 90%; in experiment [1] (setting [10]), 87%.
In the case of `CCC(C)Oc1ccc2c(c1)OC(C)(C)C=C2` (stereo not shown) [Compound 28], in experiment [2], the Survival adult is listed as 25.6% and the Survival nymph was 115%.
`CCCCOc1cc2c(cc1OCCCC)OC(C)(C)C=C2` [Compound 14]: in experiment [3] (200 μg/ml), the “Size of descendant population” value was “reduced”. Moreover, the “Size of descendant population” value in experiment [3] (400 μg/ml) was “reduced”. Also, in experiment [3] (setting [11]), the mortality at 200 µg/mL is 30% and the mortality at 400 µg/mL is 80%.
In experiment [2], `CCCOc1cc(OC)c2c(c1)OC(C)(C)C=C2` [Compound 46] displayed a Survival adult of 6.4% and a Survival nymph of 9.1%. For the same compound, in experiment [4] (0.1%), the Survival adult was 12%, the Survival nymph came to 12% and the pest or weed control at 0.1 % was 88%.
As for `COc1c(OCC(C)C)ccc2c1OC(C)(C)C=C2` [Compound 54], in experiment [4] (0.1%), the Survival adult is 7%, the Survival nymph stood at 7% and the pest or weed control at 0.1 % was 93%.
Regarding `COc1cc(OC(C)C)cc2c1C=CC(C)(C)O2` [Compound 47], in experiment [4] (0.1%), the Survival adult worked out at 9%, the Survival nymph came out at 13% and the pest or weed control at 0.1 % is 87%.
With `C=CCOc1cc2c(cc1OCC=C)OC(C)(C)C=C2` [Compound 5], the Nematocidal effect result in experiment [1] (400 μg/ml) is reported as “medial”. The mortality at 200 µg/mL amounted to 18% in experiment [1] (setting [5]), 29% in experiment [1] (setting [6]) and 23% in experiment [1] (setting [7]). Moreover, the mortality at 400 µg/mL was determined as 45% in experiment [1] (setting [8]), 43% in experiment [1] (setting [9]) and 44% in experiment [1] (setting [10]). For the same compound, the figures for the “Size of descendant population” value in experiment [3] (200 μg/ml) and in experiment [3] (400 μg/ml) were “some descendants” and “no descendants”, respectively.
On to `CCCOc1ccc2c(c1)OC(C)(C)C=C2` [Compound 25], for which, in experiment [4] (0.01%), the Survival adult is listed as 39%, the Survival nymph worked out at 48% and the pest or weed control at 0.01 % stood at 52%.
For the compound `Cc1cc(OC(C)C)cc2c1C=CC(C)(C)O2` [Compound 40], in experiment [2], the Survival adult is reported as 27.6% and the Survival nymph is 50.9%.
Turning to `CCC(C)Oc1ccc2c(c1OC)OC(C)(C)C=C2` (stereo not shown) [Compound 53, 7sec. butoxy-8-methoxy-2,2-dimethyl-2chromene], the “Size of descendant population” value in experiment [3] (200 μg/ml) and in experiment [3] (400 μg/ml) was “reduced” throughout. In addition, in experiment [4] (0.1%), the pest or weed control at 0.1 % was found to be 100%.
In the case of `Cc1cc(OC2CCCC2)cc2c1C=CC(C)(C)O2` [Compound 43], in experiment [2], the Survival adult is on record as 31.8% and the Survival nymph stood at 52.7%. Besides, the pest or weed control at 0.1 % in experiment [4] (0.1%) worked out at 100%.
Take `C#CCOc1ccc2c(c1)OC(C)(C)C=C2` [Compound 37]: in experiment [3] (200 μg/ml), the Remarks result is listed as “paralysation” and the “Size of descendant population” value is listed as “no descendants”. For the same compound, in experiment [3] (400 μg/ml), the Remarks entry is “paralysation” and the “Size of descendant population” value is “no descendants”. Moreover, in experiment [3] (setting [11]), the mortality at 200 µg/mL stood at 100% and the mortality at 400 µg/mL was found to be 100%.
In experiment [2], `COc1cc(OCC(C)C)cc2c1C=CC(C)(C)O2` [Compound 49] yielded a Survival adult of 0% and a Survival nymph of 0%. In experiment [4] (0.1%), the pest or weed control at 0.1 % was 100%.
With `C=CCOc1cc2c(cc1OC)C=CC(C)(C)O2` [Compound 7], the “Size of descendant population” value in experiment [3] (200 μg/ml) and in experiment [3] (400 μg/ml) was “no descendants” each time. In experiment [3] (setting [11]), the mortality at 200 µg/mL came out at 90%. Besides, the mortality at 400 µg/mL in experiment [3] (setting [11]) was 90%.
For the compound `COc1ccc2c(c1OC)OC(C)(C)C=C2` [Compound 35], in experiment [2], the Survival adult was determined as 0% and the Survival nymph is listed as 12%. Further, in experiment [3] (200 μg/ml), the Remarks result is recorded as “paralysation” and the “Size of descendant population” value is reported as “reduced”. In experiment [3] (400 μg/ml), the Remarks result is reported as “paralysation” and the “Size of descendant population” value is recorded as “no descendants”. Further, in experiment [3] (setting [11]), the mortality at 200 µg/mL came out at 67% and the mortality at 400 µg/mL is 100%.
As for `CCOc1ccc2c(c1OC)OC(C)(C)C=C2` [Compound 50], in experiment [2], the Survival adult was found to be 4.2% and the Survival nymph worked out at 5.4%. Also, the “Size of descendant population” value in experiment [3] (200 μg/ml) is “reduced”. The “Size of descendant population” value in experiment [3] (400 μg/ml) is listed as “no descendants”. Moreover, in experiment [4] (0.1%), the Survival adult is recorded as 24%, the Survival nymph was determined as 24% and the pest or weed control at 0.1 % is 76%.
Regarding `C#CCOc1cc(C)c2c(c1)OC(C)(C)C=C2` [Compound 44], in experiment [2], the Survival adult is 10.6% and the Survival nymph is listed as 50.9%. Besides, in experiment [3] (200 μg/ml), the Remarks entry was “paralysation” and the “Size of descendant population” value is listed as “some descendants”. Further, in experiment [3] (400 μg/ml), the Remarks result is “paralysation” and the “Size of descendant population” value is listed as “no descendants”. Moreover, in experiment [4] (0.1%), the Survival adult stood at 17%, the Survival nymph worked out at 17% and the pest or weed control at 0.1 % is 83%.
In experiment [2], `COc1ccc2c(c1)OC(C)(C)C=C2` [Compound 23, 7-methoxy-2,2-dimethyl-2H-chromene, reference compound] came in with a Survival adult of 33.3% and a Survival nymph of 100%. In experiment [3] (200 μg/ml), the “Size of descendant population” value was “reduced”. In addition, in experiment [3] (400 μg/ml), the “Size of descendant population” value is reported as “no descendants”. Also, in experiment [4] (0.01%), the Survival adult is listed as 50%, the Survival nymph came out at 59% and the pest or weed control at 0.01 % worked out at 41%.
Turning to `CCOc1cc2c(cc1OC)OC(C)(C)C=C2` [Compound 34], in experiment [2], the Survival adult was 12.8% and the Survival nymph is recorded as 85%. In addition, in experiment [3] (200 μg/ml), the Remarks entry is “paralysation” and the “Size of descendant population” value is listed as “reduced”. In addition, in experiment [3] (400 μg/ml), the Remarks result is reported as “paralysation” and the “Size of descendant population” value is “some descendants”. Also, in experiment [3] (setting [11]), the mortality at 200 µg/mL is 15% and the mortality at 400 µg/mL is 23%.
In the case of `CCC(C)Oc1cc(OC)c2c(c1)OC(C)(C)C=C2` (stereo not shown) [Compound 48, 5-methoxy-7-sec. butoxy-2,2-dimethyl-2H-chromene], in experiment [4] (0.1%), the pest or weed control at 0.1 % was determined as 100%.
In experiment [2], `CC(C)COc1ccc2c(c1)OC(C)(C)C=C2` [Compound 29] registered a Survival adult of 28.2% and a Survival nymph of 100%.
For the compound `CC1(C)C=Cc2cc3c(cc2O1)OCO3` [Compound 4], the Nematocidal effect result in experiment [1] (200 μg/ml) and in experiment [1] (400 μg/ml) was “strong” in each case. Further, the mortality at 200 µg/mL in experiment [1] (setting [5]) came to 84%; in experiment [1] (setting [6]) it was 69%; in experiment [1] (setting [7]), 77%; in experiment [3] (setting [11]) it was 100%. Moreover, the mortality at 400 µg/mL was determined as 96% in experiment [1] (setting [8]), 92% in experiment [1] (setting [9]), 94% in experiment [1] (setting [10]) and 100% in experiment [3] (setting [11]). The “Size of descendant population” value in experiment [3] (100 μg/ml), in experiment [3] (200 μg/ml) and in experiment [3] (400 μg/ml) was “no descendants” each time. Also, the mortality at 100 µg/mL in experiment [3] (setting [11]) was found to be 100%.
With `CCOc1cc(C)c2c(c1)OC(C)(C)C=C2` [Compound 38], in experiment [2], the Survival adult was determined as 14.8% and the Survival nymph was determined as 40%. Further, in experiment [4] (0.1%), the Survival adult worked out at 19%, the Survival nymph is given as 19% and the pest or weed control at 0.1 % stood at 81%.
Consider `CCC(C)Oc1cc(C)c2c(c1)OC(C)(C)C=C2` (stereo not shown) [Compound 41], for which, in experiment [2], the Survival adult is on record as 12.5% and the Survival nymph stood at 25.4%. Also, in experiment [4] (0.1%), the Survival adult came out at 14%, the Survival nymph is on record as 19% and the pest or weed control at 0.1 % came out at 11%.

For the origin of these results see patent US4968819A, “Process for the preparation of chromene derivatives” (Alkaloida Vegyeszeti Gyar, priority 1983, dated 1990).
